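Each compound was tested at five concentrations against cells in 96-well plates for 48 hours. TGI: concentration producing complete growth inhibition.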
Experiments:
Experiment in all cases: NCI anticancer screen, dose series, 48 h
[1] = test system: UO-31 renal
[2] = test system: HCT-116 colon
[3] = test system: OVCAR-8 ovarian
[4] = test system: DLD-1 colon
[5] = test system: 786-0 renal
[6] = test system: HCT-15 colon
[7] = test system: SN12C renal
[8] = test system: SW-620 colon
[9] = test system: SF-539 CNS
[10] = test system: LXFL 529 NSCLC
[11] = test system: NCI-H226 lung
[12] = test system: A549 NSCLC
[13] = test system: KM20L2 colon
[14] = test system: SR leukemia
[15] = test system: HT29 colon
[16] = test system: SK-MEL-2 melanoma
[17] = test system: SK-MEL-28 melanoma
[18] = test system: OVCAR-5 ovarian
[19] = test system: HL-60(TB) leukemia
[20] = test system: K-562 leukemia
[21] = test system: EKVX NSCLC
[22] = test system: NCI-H522 lung
[23] = test system: MOLT-4 leukemia
[24] = test system: DMS 114 small cell lung
[25] = test system: OVCAR-4 ovarian
[26] = test system: RXF-631 renal
[27] = test system: U251 CNS
[28] = test system: NCI-H23 lung
[29] = test system: HOP-62 NSCLC
[30] = test system: HCC-2998 colon
[31] = test system: NCI-H460 lung
[32] = test system: RXF 393 renal
[33] = test system: TK-10 renal
[34] = test system: UACC-62 melanoma
[35] = test system: A498 renal
[36] = test system: SNB-75 CNS
[37] = test system: UACC-257 melanoma
[38] = test system: SF-295 CNS
[39] = test system: M19-MEL melanoma
[40] = test system: SF-268 CNS
[41] = test system: COLO 205 colon
[42] = test system: SNB-19 CNS
[43] = test system: SK-OV-3 ovarian
[44] = test system: CCRF-CEM leukemia
[45] = test system: OVCAR-3 ovarian
[46] = test system: ACHN renal
[47] = test system: MALME-3M melanoma
[48] = test system: IGROV1 ovarian
[49] = test system: M14 melanoma
[50] = test system: RPMI-8226 leukemia
[51] = test system: SNB-78 CNS
[52] = test system: KM12 colon
[53] = test system: DMS 273 small cell lung
[54] = test system: XF 498 CNS
[55] = test system: CAKI-1 renal
[56] = test system: LOX IMVI melanoma
[57] = test system: SK-MEL-5 melanoma
[58] = test system: HOP-92 NSCLC

Question: With `CC1CC(c2ccc(Cl)cc2)=Nc2ccccc2S1` (centres undefined) as the molecule, how does the TGI [1] read?
Answer: The TGI was greater than 100 µM.

Question: What about the TGI [2] of the same molecule?
Answer: The TGI was greater than 100 µM.

Question: What about the TGI [3] of the same molecule?
Answer: Its TGI is greater than 100 µM.

Question: What about the TGI [4] of the same molecule?
Answer: The TGI was greater than 100 µM.

Question: And the TGI [5]?
Answer: Its TGI is greater than 100 µM.

Question: And the TGI [6]?
Answer: Its TGI is greater than 100 µM.

Question: What about the TGI [7] of the same molecule?
Answer: Its TGI is greater than 100 µM.

Question: And the TGI [8]?
Answer: The TGI was greater than 100 µM.

Question: And the TGI [9]?
Answer: Its TGI is greater than 100 µM.

Question: What about the TGI [10] of the same molecule?
Answer: Its TGI is greater than 100 µM.

Question: And the TGI [11]?
Answer: The TGI was greater than 100 µM.

Question: And the TGI [12]?
Answer: Its TGI is greater than 100 µM.

Question: And the TGI [13]?
Answer: The TGI was greater than 100 µM.

Question: What about the TGI [14] of the same molecule?
Answer: The TGI was greater than 100 µM.

Question: And the TGI [15]?
Answer: The TGI was greater than 100 µM.

Question: And the TGI [16]?
Answer: The TGI was greater than 100 µM.

Question: What about the TGI [17] of the same molecule?
Answer: Its TGI is greater than 100 µM.

Question: What about the TGI [18] of the same molecule?
Answer: Its TGI is greater than 100 µM.

Question: And the TGI [19]?
Answer: Its TGI is greater than 100 µM.

Question: What about the TGI [20] of the same molecule?
Answer: The TGI was greater than 100 µM.

Question: And the TGI [21]?
Answer: The TGI was greater than 100 µM.

Question: And the TGI [22]?
Answer: The TGI was greater than 100 µM.

Question: What about the TGI [23] of the same molecule?
Answer: Its TGI is greater than 100 µM.

Question: What about the TGI [24] of the same molecule?
Answer: Its TGI is greater than 100 µM.

Question: What about the TGI [25] of the same molecule?
Answer: The TGI was greater than 100 µM.

Question: And the TGI [26]?
Answer: Its TGI is greater than 100 µM.

Question: What about the TGI [27] of the same molecule?
Answer: Its TGI is greater than 100 µM.

Question: And the TGI [28]?
Answer: Its TGI is greater than 100 µM.

Question: What about the TGI [29] of the same molecule?
Answer: Its TGI is greater than 100 µM.

Question: What about the TGI [30] of the same molecule?
Answer: Its TGI is greater than 100 µM.

Question: And the TGI [31]?
Answer: The TGI was greater than 100 µM.

Question: What about the TGI [32] of the same molecule?
Answer: Its TGI is greater than 100 µM.

Question: What about the TGI [33] of the same molecule?
Answer: The TGI was greater than 100 µM.

Question: And the TGI [34]?
Answer: Its TGI is greater than 100 µM.

Question: What about the TGI [35] of the same molecule?
Answer: The TGI was greater than 100 µM.

Question: What about the TGI [36] of the same molecule?
Answer: The TGI was greater than 100 µM.

Question: And the TGI [37]?
Answer: Its TGI is greater than 100 µM.

Question: And the TGI [38]?
Answer: The TGI was greater than 100 µM.

Question: What about the TGI [39] of the same molecule?
Answer: The TGI was greater than 100 µM.

Question: And the TGI [40]?
Answer: Its TGI is greater than 100 µM.

Question: And the TGI [41]?
Answer: Its TGI is greater than 100 µM.

Question: And the TGI [42]?
Answer: The TGI was greater than 100 µM.

Question: And the TGI [43]?
Answer: The TGI was greater than 100 µM.

Question: And the TGI [44]?
Answer: Its TGI is greater than 100 µM.

Question: What about the TGI [45] of the same molecule?
Answer: The TGI was greater than 100 µM.

Question: And the TGI [46]?
Answer: The TGI was greater than 100 µM.

Question: What about the TGI [47] of the same molecule?
Answer: The TGI was greater than 100 µM.

Question: What about the TGI [48] of the same molecule?
Answer: The TGI was greater than 100 µM.

Question: And the TGI [49]?
Answer: The TGI was greater than 100 µM.

Question: What about the TGI [50] of the same molecule?
Answer: Its TGI is greater than 100 µM.

Question: What about the TGI [51] of the same molecule?
Answer: Its TGI is greater than 100 µM.

Question: And the TGI [52]?
Answer: Its TGI is greater than 100 µM.

Question: What does the source list for `Cc1nc(-c2nc(C)c(C(=O)/C=C/c3ccc(N(C)C)cc3)s2)sc1C(=O)/C=C/c1ccc(N(C)C)cc1`?
Answer: TGI [1]: > 100 µM; TGI [2]: > 100 µM; TGI [3]: > 100 µM; TGI [4]: > 100 µM; TGI [5]: > 100 µM; TGI [6]: > 100 µM; TGI [7]: > 100 µM; TGI [8]: > 100 µM; TGI [9]: > 100 µM; TGI [10]: > 100 µM; TGI [11]: > 100 µM; TGI [12]: > 100 µM; TGI [13]: > 100 µM; TGI [14]: > 100 µM; TGI [16]: > 100 µM; TGI [53]: > 100 µM; TGI [17]: > 100 µM; TGI [18]: > 100 µM; TGI [19]: > 100 µM; TGI [54]: 44.6 µM; TGI [20]: > 100 µM; TGI [21]: > 100 µM; TGI [22]: 89.2 µM; TGI [23]: > 100 µM; TGI [24]: > 100 µM; TGI [25]: > 100 µM; TGI [26]: > 100 µM; TGI [27]: > 100 µM; TGI [28]: > 100 µM; TGI [29]: > 100 µM; TGI [30]: > 100 µM; TGI [31]: > 100 µM; TGI [32]: > 100 µM; TGI [33]: > 100 µM; TGI [34]: 58 µM; TGI [37]: > 100 µM; TGI [38]: > 100 µM; TGI [39]: > 100 µM; TGI [40]: > 100 µM; TGI [41]: > 100 µM; TGI [42]: > 100 µM; TGI [55]: > 100 µM; TGI [43]: > 100 µM; TGI [44]: > 100 µM; TGI [45]: > 100 µM; TGI [56]: > 100 µM; TGI [46]: > 100 µM; TGI [47]: > 100 µM; TGI [48]: > 100 µM; TGI [49]: > 100 µM; TGI [52]: > 100 µM

Question: What does the source list for `O=C(c1ccccc1)N1C2C3CC(OCc4ccccc4)(OCc4ccccc4)C(O3)C21` (centres undefined)?
Answer: TGI [1]: > 100 µM; TGI [2]: > 100 µM; TGI [3]: > 100 µM; TGI [4]: > 100 µM; TGI [5]: > 100 µM; TGI [57]: > 100 µM; TGI [6]: > 100 µM; TGI [7]: > 100 µM; TGI [8]: > 100 µM; TGI [9]: > 100 µM; TGI [10]: > 100 µM; TGI [11]: > 100 µM; TGI [12]: > 100 µM; TGI [13]: > 100 µM; TGI [16]: > 100 µM; TGI [17]: > 100 µM; TGI [18]: > 100 µM; TGI [19]: > 100 µM; TGI [54]: > 100 µM; TGI [20]: > 100 µM; TGI [21]: > 100 µM; TGI [22]: > 100 µM; TGI [23]: > 100 µM; TGI [24]: > 100 µM; TGI [25]: > 100 µM; TGI [26]: > 100 µM; TGI [27]: > 100 µM; TGI [28]: > 100 µM; TGI [29]: > 100 µM; TGI [30]: > 100 µM; TGI [31]: > 100 µM; TGI [58]: > 100 µM; TGI [32]: > 100 µM; TGI [33]: > 100 µM; TGI [34]: > 100 µM; TGI [35]: > 100 µM; TGI [36]: > 100 µM; TGI [39]: > 100 µM; TGI [40]: > 100 µM; TGI [41]: > 100 µM; TGI [42]: > 100 µM; TGI [55]: > 100 µM; TGI [43]: > 100 µM; TGI [44]: > 100 µM; TGI [56]: > 100 µM; TGI [46]: > 100 µM; TGI [47]: > 100 µM; TGI [48]: > 100 µM; TGI [49]: > 100 µM; TGI [50]: > 100 µM; TGI [51]: > 100 µM
